These results are taken from patent US8481740B2, “Imidazo[1,2 a] pyridine-6-carboxamide derivatives, their use for the treatment of colon cancer and their method of manufacture” (University of the Witwatersrand, Johannesburg, priority 2009, dated 2013).

One data set relates to caspase 3 in HT-29 cells. Put plainly: Caspase 3 colorimetric assay, HT-29 lysates. It is filed as cell-based, human. Conditions: for time at which high caspase 3 levels were observed / time of maximal caspase 3 expression: time of exposure; for initiation of apoptosis compared with camptothecin: from caspase 3 levels. As to the method: (§1) As it is well known that caspases play a vital role in the execution of apoptosis, the level of caspase 3 and caspase 8 enzymatic activity in the cell lysates were determined using a caspase 3 and caspase 8 colorimetric assay kit (FIGS. 3A and B). Maximal caspase 8 expression in HT-29 cells was observed within 2 hours of exposure to all the CDK compounds. […] Maximal caspase 3 expression in the HT-29 cells was observed after 8 hours of exposure to 7 and 13, and 4 hours of exposure to 12. Maximal caspase 8 expression in the HT-29 cells was observed within 2 hours of exposure to 14, 4 and 6, and within 4 hours after exposure to 3. Maximal caspase 3 expression in the HT-29 cells was observed after 2 hours of exposure to 4 and 6, and after 4 hours of exposure to 14 and 3.
(§2) The activation of caspases initiates apoptosis in mammalian cells. Caspase 3 and Caspase 8 were detected using the CPP32 and FLICE colorimetric Assay kits, respectively. The following method (obtained from Biovision research products) was performed.
(§3) The treated HT-29 and Caco-2 cells were harvested and resuspended in 50 μl of chilled cell lysis buffer and incubated on ice for 10 minutes. The cells were centrifuged for 1 minute (10000 g) and the supernatant (cytosolic extract) was transferred to a fresh tube and placed on ice. The protein concentration was assayed using the Biorad assay method. 100-200 μg protein to 50 μl cell lysis buffer was diluted for each assay. 50 μl of 2× Reaction buffer (containing 10 mM DTT) was added to each sample. 5 μl of 4 mM IETD-pNA substrate for Caspase 8 and 5 μl of 4 mM DEVD-pNA substrate for Caspase 3 was added to each sample and incubated at 37° C. for 1-2 hours. The samples were read at 405 nm in the microtiter plate reader. Time dependent studies were performed for protease activity by attaining results 2, 4, 6, 12, and 24 hours after treatment with the compounds.

For data set [1], the system named is caspase 3 in Caco-2 cells. Put plainly: Caspase 3 colorimetric assay, Caco-2 lysates. It is filed as cell-based, human. The conditions noted are these: time of exposure. On the procedure:
as §1, §2, §3

The next data set deals with white blood cells. Put plainly: MTT cell viability assay, white blood cells. It is filed as cell-based. As to the method:
Cell viability was determined by the MTT assay after the white blood cells were exposed to the novel compounds for 24 hours at an initial concentration of 100 μM. Camptothecin was used as a positive control for cytotoxicity.

In the next data set the test system is caspase 8 in HT-29 cells. As to the kind of experiment: Caspase 8 colorimetric assay, HT-29 lysates. It is filed as cell-based, human. The conditions noted are these: time of exposure. On the procedure:
as §1, §2
The treated HT-29 and Caco-2 cells were harvested and resuspended in 50 μl of chilled cell lysis buffer and incubated on ice for 10 minutes. The cells were centrifuged for 1 minute (10000 g) and the supernatant (cytosolic extract) was transferred to a fresh tube and placed on ice. […] The samples were read at 405 nm in the microtiter plate reader. […]

Another data set has as its system HT-29 cell line. As to the kind of experiment: MTT cell viability assay, HT-29. It is filed as cell-based, human. The conditions noted are these: read-out: IC50 (molar concentration that inhibited growth by 50%), 24 hours, 5 μM to 100 μM. As to the method: (§4) The colon cancer cells were initially exposed to the different imidazo[1,2-a]pyridines compounds at 100 μM (final concentration in the well) at 37° C. for 24 hours using an MTT assay for cell viability quantification.
(§5) The HT-29 and Caco-2 cells were exposed to the novel imidazo[1,2-a]pyridine class of compounds according to the invention in concentrations ranging from 5 μM to 100 μM for 24 hours.
The study made use of two colonic carcinoma cell lines, namely the HT-29 and Caco-2 cell lines. The HT-29 and Caco-2 cell lines were obtained from Highveld Biological, South Africa. Both cell lines were cultured in Dulbecco's Modified Eagles Medium (DMEM) (Highveld Biological, South Africa) and supplemented with 5% heat-inactivated heat-inactivated foetal bovine serum (FBS). 1 ml 10 kU penicillin G/10 mg streptomycin sulphate (pen/strep) (Highveld Biological, South Africa) and 0.4% 100 mM sodium pyruvate per 500 ml DMEM were added after filter sterilisation.
The two colon cancer cells were counted and diluted into fresh media at concentrations of 30 000 cells/well and an aliquot of 180 μl was seeded to each well in a 96-well plate. The plates were then placed in an incubator (37° C., 5% CO2, volume fraction) and the cells were allowed to divide for a period of 24 hours.
The cells were exposed to the different classes of synthetic compounds at 100 μM (final concentration in the well) at 37° C. for 24 hours using an MTT assay for cell viability quantification. After the 24 hour incubation, the plates were removed from the incubator, and an aliquot of 50 μl 0.5% MTT (USB, USA) in 1 mM PBS (pH 7.4) was layered on the media. The plates were incubated for 2 hours at 37° C. The plates were than centrifuged at 3000 rpm (Afrox Sorvall T 6000D) for 5 minutes. Following centrifugation, the medium was very carefully aspirated. Formazan crystals were dissolved in 200 μl DMSO. The absorbance was then read at 540 nm using the Absorbance Labsystems Multiskan MS, version 2.4. The controls used in the assay consisted of i) medium alone without cells, ii) medium with or without the tested compounds and iii) medium with Camptothecin.
Compounds showing cytotoxicity at a concentration of 100 μM were further diluted to obtain an IC50 concentration. All tests were performed in triplicate.
For orientation: Formazan colour is commonly taken as a measure of viable cells.

The next data set concerns HT-29 cells. Conditions: 100 μM, 24 hours. As to the method:
(§6) The dysfunction of the mitochondria is believed to be an important step in the commitment of the cell to apoptosis. To assess whether disruption of the mitochondrial transmembrane potential (Δψ) was involved in the apoptotic action of the novel imidazo[1,2-a]pyridines, the HT-29 and Caco-2 cells were treated for 24 hours with 100 μM of the novel compounds and then analysed by flow cytometry by using the cationic fluorescent dye 5,5′,6,6′-tetrachloro-1,1′,3,3′-tetraethylbenzimidazolcarbocyanine iodide (JC-1) to measure mitochondrial membrane depolarization in intact viable cells.
(§7) When energy is released during the oxidation reactions in the mitochondrial respiratory chain, it is stored as a negative electrochemical gradient across the mitochondrial membrane. Under these situations, the mitochondrial membrane potential (Δψ) is polarized. During the early stages of apoptosis, a collapse of the Δψ which results in a depolarized Δψ, is sometimes noticed. […] The changes in Δψ have also been noticed during necrosis (depolarisation) and cell cycle arrest (hyperpolarisation). Understanding the Δψ and how it alters during apoptosis and necrosis, may assist in determining the function of the mitochondria in these and other cellular processes. […]

In another data set the test system is Caco-2 cells. As to the kind of experiment: JC-1 mitochondrial membrane potential flow cytometry, Caco-2. Conditions: 100 μM, 24 hours. It is filed as cell-based, human. On the procedure: as §6, §7
A general note: In flow cytometry, cells or beads pass a laser one at a time.

The test system of a further data set is Caco-2 cell line. As to the kind of experiment: MTT cell viability assay, Caco-2. It is filed as cell-based. The conditions noted are these: Homo sapiens, read-out: IC50 (molar concentration that inhibited growth by 50%), 24 hours, 5 μM to 100 μM. On the procedure:
as §4, §5
The study made use of two colonic carcinoma cell lines, namely the HT-29 and Caco-2 cell lines. The HT-29 and Caco-2 cell lines were obtained from Highveld Biological, South Africa. Both cell lines were cultured in Dulbecco's Modified Eagles Medium (DMEM) (Highveld Biological, South Africa) and supplemented with 5% heat-inactivated heat-inactivated foetal bovine serum (FBS). […]
The two colon cancer cells were counted and diluted into fresh media at concentrations of 30 000 cells/well and an aliquot of 180 μl was seeded to each well in a 96-well plate. […]
The cells were exposed to the different classes of synthetic compounds at 100 μM (final concentration in the well) at 37° C. for 24 hours using an MTT assay for cell viability quantification. […] The absorbance was then read at 540 nm using the Absorbance Labsystems Multiskan MS, version 2.4. […]

Where two headings read alike, the source gives them in different places. Some results are limits rather than exact numbers.

Take `COc1ccc(-c2nc3ccc(C)cn3c2Nc2c(C)cccc2C)cc1OC` [Compound 3]: in the data set on caspase 3 in HT-29 cells, the “time at which high caspase 3 levels were observed” value came out at 4 h and the “time of maximal caspase 3 expression” value amounted to 4 h. For the same molecule, the “time at which high caspase 3 levels were observed” value in data set [1] came to 4 h. For the same molecule, in the data set with white blood cells (100 µM), the “White Blood Cell Viability %” value is given as 76.176 ± 0.567%. Moreover, the “time of maximal (peak) caspase 8 expression” value with caspase 8 in HT-29 cells is at most 4 h.
With `COc1ccc(OC)c(-c2nc3ccc(Br)cn3c2NCc2ccccc2)c1` [Compound 4], in the data set on caspase 3 in HT-29 cells, the “initiation of apoptosis compared with camptothecin” value is “earlier stage than camptothecin”, the “time at which high caspase 3 levels were observed” value turned out to be 2 h and the “time of maximal caspase 3 expression” value amounted to 2 h. In addition, in data set [1], the “time at which high caspase 3 levels were observed” value stood at 2 h. The “White Blood Cell Viability %” value with white blood cells (100 µM) is reported as 88.943 ± 1.996%.
As for `COc1ccc(-c2nc3ccc(Br)cn3c2Nc2c(C)cccc2C)cc1OC` [Compound 6], in the data set on caspase 3 in HT-29 cells, the “initiation of apoptosis compared with camptothecin” value was “earlier stage than camptothecin”, the “time at which high caspase 3 levels were observed” value is 2 h and the “time of maximal caspase 3 expression” value was 2 h. In addition, the “time at which high caspase 3 levels were observed” value in data set [1] came out at 2 h. Also, the “White Blood Cell Viability %” value in the data set on white blood cells (24 h, 100 µM) worked out at 83.762 ± 1.389%.
Consider `NC(=O)c1ccc2nc(-c3ccc(OCc4ccccc4)cc3OCc3ccccc3)c(NC3CCCCC3)n2c1` [Compound 7], for which the IC50 with HT-29 cell line worked out at 9.2 ± 0.83 µM. In addition, the “time of maximal caspase 3 expression” value in the data set with caspase 3 in HT-29 cells amounted to 8 h. Also, in the data set with HT-29 cells, the “cells undergoing apoptosis (JC-1)” value is recorded as 79.62% and the “healthy cells remaining after treatment (JC-1)” value amounted to 20.33%. For the same molecule, in the data set with white blood cells (100 µM), the “White Blood Cell Viability %” value was determined as 93.834 ± 0.271%.
With `COc1ccc(-c2nc3ccc(Br)cn3c2Nc2c(C)cccc2C)c(OC)c1` [Compound 12], in the data set on HT-29 cell line (Homo sapiens), the IC50 worked out at 22 ± 1.17 µM. In addition, the “time of maximal caspase 3 expression” value in the data set on caspase 3 in HT-29 cells was found to be 4 h. The “cells undergoing apoptosis (JC-1), average” value with Caco-2 cells amounted to 81.91%. Also, the “White Blood Cell Viability %” value in the data set on white blood cells (24 h, 100 µM) was found to be 96.311 ± 5.023%.
With `COc1ccc(-c2nc3ccc(C)cn3c2Nc2c(C)cccc2C)c(OC)c1` [Compound 13], in the data set on HT-29 cell line, the IC50 came out at 10 ± 2.69 µM. Also, the “time of maximal caspase 3 expression” value in the data set on caspase 3 in HT-29 cells came out at 8 h. For the same molecule, the “White Blood Cell Viability %” value in the data set with white blood cells (100 µM) was 97.479 ± 1.178%.
Consider `COc1ccc(-c2nc3ccc(-c4ccccc4)cn3c2Nc2c(C)cccc2C)cc1OC` [Compound 14], for which, in the data set on caspase 3 in HT-29 cells, the “initiation of apoptosis compared with camptothecin” value is “earlier stage than camptothecin”, the “time at which high caspase 3 levels were observed” value is 2 h and the “time of maximal caspase 3 expression” value was 4 h. In data set [1], the “time at which high caspase 3 levels were observed” value amounted to 2 h. Besides, the “White Blood Cell Viability %” value with white blood cells (24 h, 100 µM) was 77.345 ± 1.005%.
Turning to `CC[C@@]1(O)C(=O)OCc2c1cc1n(c2=O)Cc2cc3ccccc3nc2-1` [camptothecin, reference compound], the figures for the IC50 with HT-29 cell line (Homo sapiens) and in the data set with Caco-2 cell line were 9.99 ± 1.41 µM and 9.55 ± 2.21 µM, respectively. In addition, the “White Blood Cell Viability %” value in the data set with white blood cells (100 μM, 24 hours, MTT) turned out to be 33.782 ± 2.031%.
